Test: Solid-state stability and moisture sorption versus relative humidity (dynamic moisture sorption gravimetry, DMSG)
Format: physicochemical

C[C@]12O[C@H](C[C@]1(O)CO)n1c3ccccc3c3c4c(c5c6ccccc6n2c5c31)CNC4=O [Crystalline lestaurtinib anhydrate, lestaurtinib anhydrate]
water content of solid-state phase by DMSG (25° C., between 0% and 5% RH, w/w): less than 0.5%
behaviour above 5% RH (ambient temperature, above 5% RH): absorbs moisture above 5% RH to form crystalline lestaurtinib monohydrate

Source: patent publication US20100048534A1, “CRYSTALLINE LESTAURTINIB HYDRATES AND CRYSTALLINE LESTAURTINIB HEMIHYDRATE HEMIACETONITRILEATE AND CRYSTALLINE LESTAURTINIB HEMIHYDRATE HEMITETRAHYDROFURANATE” (priority 2005, published 2010)
